Assay results: patent US9701672B2, “Dihydropyridinone MGAT2 inhibitors for use in the treatment of metabolic disorders” (BRISTOL-MYERS SQUIBB COMPANY, priority 2014, dated 2017)

molecular target: human MGAT-2 (Homo sapiens (Human), UniProt Q3SYC2); test: MGAT LCMS assay (h-MGAT LCMS); type: biochemical; conditions: human MGAT2 membranes expressed in Sf9 cells; 100 μM 2-oleoylglycerol, 15 μM oleoyl-coenzyme A
Method: The MGAT enzyme reactions were performed in Corning FALCON® 96-well polypropylene plates, in a total volume of 60 μL of 50 mM potassium phosphate buffer pH 7.4, containing a final concentration of 100 μM 2-oleoylglycerol, 15 μM oleoyl-coenzyme A and 0.0013 μg/μL human or mouse MGAT-2 or 0.0026 μg/μL rat recombinant MGAT-2 membranes expressed in Sf9 cells. Assay plates were run through a fully automated robotics system and shaken for 5 seconds every minute for a total 10 minutes. The reactions were then quenched with 120 μL of ice cold methanol containing 1 μg/mL 1,2-distearoyl-rac-glycerol as the internal standard. Plates were shaken for 2 minutes and spun down to remove protein precipitation. After the spin, samples were transferred to LC/MS compatible PCR plates. For LC/MS analysis, a ThermoFisher Surveyor pump, utilizing a Waters […]® C8, 50×2.1 mm column, was used for the chromatography of enzyme products. The buffer system consists of 0.1% formic acid in water with a mobile phase consisting 0.1% formic acid in methanol. The shallow gradient is 90-100% mobile phase in 0.2 min with a total run time of 2.3 min. The first 0.5 minutes of each injection was diverted to waste to eliminate the presence of phosphate buffer in the enzymatic reaction. The column was run at 0.6 mL/min and a temperature of 65° C. Mass spectrometry analysis of the samples was performed on a ThermoFisher Quantum Triple quad utilizing APCI (+) as the mode of ionization. Data was acquired in Single Ion Monitoring (SIM) mode analyzing Diolein=m/z 603.6 (PRODUCT) and 1,2-distearoyl-rac-glycerol (IS)=m/z 607.6. The ratio of Diolein to internal standard (Peak Area Ratio) is utilized to calculate IC50 values.
“NT” denotes “Not tested”.

Sequence of human MGAT-2 (Q3SYC2 whole entry): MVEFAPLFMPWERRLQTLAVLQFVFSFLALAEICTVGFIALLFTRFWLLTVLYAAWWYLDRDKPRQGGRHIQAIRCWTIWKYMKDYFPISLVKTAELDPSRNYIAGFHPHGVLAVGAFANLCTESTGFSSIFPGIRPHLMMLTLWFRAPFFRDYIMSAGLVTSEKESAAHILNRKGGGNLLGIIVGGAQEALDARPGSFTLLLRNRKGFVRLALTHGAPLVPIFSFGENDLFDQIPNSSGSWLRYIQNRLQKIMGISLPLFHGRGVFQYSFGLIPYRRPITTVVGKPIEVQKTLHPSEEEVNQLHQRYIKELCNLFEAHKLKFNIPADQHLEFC

| IC50 [nM] | Structure (SMILES) |
| --- | --- |
| 3.2 | O=C1N[C@@](c2ccc(OCCCC(F)(F)F)cc2F)(C(F)(F)F)CC(c2ccn(CC3CC3)n2)=C1c1nnn[nH]1 [Example 52] |
| 44 | O=C1N[C@@](c2ccc(OCCCC(F)(F)F)cc2F)(C(F)(F)F)CC(c2ccn(CC3CCC3)n2)=C1c1nnn[nH]1 [Example 53] |
| 0.2 | O=C1N[C@@](c2ccc(OCCCC(F)(F)F)cc2Cl)(C(F)(F)F)CC(c2ccc(C3CC3)s2)=C1c1nnn[nH]1 [Example 56] |
| 1.4 | COc1cc(OCCCC(F)(F)F)ccc1[C@]1(C(F)(F)F)CC(c2ccc(C3CC3)s2)=C(c2nnn[nH]2)C(=O)N1 [Example 57] |
| 2.2 | CCc1ccc(C2=C(c3nnn[nH]3)C(=O)N[C@@](c3ccc(OCCCCCC(F)(F)F)cc3)(C(F)(F)F)C2)s1 [Example 58] |
| 1.4 | O=C1N[C@@](c2ccc(OCCCC(F)(F)F)cc2F)(C(F)(F)F)CC(c2ncc(C3CC3)s2)=C1c1nnn[nH]1 [Example 59] |
| 137 | O=C1N[C@@](c2ccc(OCCCCCC(F)(F)F)cc2)(C(F)(F)F)CC(c2nc3ccccc3s2)=C1c1nnn[nH]1 [Example 60] |
| 120 | O=C1N[C@@](c2ccc(OCCCC(F)(F)F)cc2Cl)(C(F)(F)F)CC(c2ccn(C3CC3)n2)=C1c1nnn[nH]1 [Example 61] |
| 2.1 | CCc1cnc(C2=C(c3nnn[nH]3)C(=O)N[C@@](c3ccc(OCCCC(F)(F)F)cc3F)(C(F)(F)F)C2)s1 [Example 62] |
| 0.7 | O=C1N[C@@](c2ccc(OCCCCCC(F)(F)F)cc2Cl)(C(F)(F)F)CC(c2ncc(C3CC3)s2)=C1c1nnn[nH]1 [Example 63] |
| 1.1 | O=C1N[C@@](c2ccc(OCCCC(F)(F)F)cc2Cl)(C(F)(F)F)CC(c2ncc(C3CC3)s2)=C1c1nnn[nH]1 [Example 64] |
| 8.8 | CCc1ccc(C2=C(c3nnn[nH]3)C(=O)N[C@@](c3ccc(Br)cc3)(C(F)(F)F)C2)s1 [Example 65] |
| 0.5 | CCc1cnc(C2=C(c3nnn[nH]3)C(=O)N[C@@](c3ccc(OCCCCCC(F)(F)F)cc3F)(C(F)(F)F)C2)s1 [Example 66] |
| 32.3 | COc1ccc(C2=C(C#N)C(=O)N[C@@](c3ccc(OCCCCC(F)(F)F)cc3)(C(F)(F)F)C2)cn1 [Example 70, (S)-6-Methoxy-2′-oxo-6′-(trifluoromethyl)-6′-(4-((5,5,5-trifluoropentyl)oxy)phenyl)-1′,2′,5′,6′-tetrahydro-[3,4′-bipyridine]-3′-carbonitrile] |
| 31.5 | Cc1ccc(C2=C(C#N)C(=O)N[C@@](c3ccc(OCCCCCC(F)(F)F)cc3)(C(F)(F)F)C2)s1 [Example 71, (S)-4-(5-Methylthiophen-2-yl)-2-oxo-6-(4-((6,6,6-trifluorohexyl)oxy)phenyl)-6-(trifluoromethyl)-1,2,5,6-tetrahydropyridine-3-carbonitrile] |
| 10.3 | COc1ccc(C2=C(C#N)C(=O)N[C@@](c3ccc(OCCCCCC(F)(F)F)cc3)(C(F)(F)F)C2)cn1 [Example 72, (S)-6-Methoxy-2′-oxo-6′-(4-((6,6,6-trifluorohexyl)oxy)phenyl)-6′-(trifluoromethyl)-1′,2′,5′,6′-tetrahydro-[3,4′-bipyridine]-3′-carbonitrile] |
| 1.5 | CCc1ccc(C2=C(NC(=O)CS(C)(=O)=O)C(=O)N[C@@](c3ccc(OCCCCCC(F)(F)F)cc3)(C(F)(F)F)C2)s1 [Example 75, (S)—N-(4-(5-Ethylthiophen-2-yl)-2-oxo-6-(4-((6,6,6-trifluorohexyl)oxy)phenyl)-6-(trifluoromethyl)-1,2,5,6-tetrahydropyridin-3-yl)-2-(methylsulfonyl)acetamide] |
| 522 | Cc1cnn(C2=C(C#N)C(=O)N[C@@](c3ccc(OCCCC(F)(F)F)cc3)(C(F)(F)F)C2)c1 [Example 77] |

| Structure (SMILES) | IC50 [nM] |
| --- | --- |
| Cc1ccc(C2=C(C#N)C(=O)N[C@@](c3ccc(OCCCC(F)(F)F)cc3)(C(F)(F)F)C2)s1 [Example 67, (S)-4-(5-Methylthiophen-2-yl)-2-oxo-6-(4-(4,4,4-trifluorobutoxy)phenyl)-6-(trifluoromethyl)-1,2,5,6-tetrahydropyridine-3-carbonitrile] | 97.6 |
| N#CC1=C(c2ccc(Cl)s2)C[C@](c2ccc(OCCCC(F)(F)F)cc2)(C(F)(F)F)NC1=O [Example 68, (S)-4-(5-Chlorothiophen-2-yl)-2-oxo-6-(4-(4,4,4-trifluorobutoxy)phenyl)-6-(trifluoromethyl)-1,2,5,6-tetrahydropyridine-3-carbonitrile] | 30.2 |
| Cc1csc(C2=C(C#N)C(=O)N[C@@](c3ccc(OCCCC(F)(F)F)cc3)(C(F)(F)F)C2)c1 [Example 69, (S)-4-(4-Methylthiophen-2-yl)-2-oxo-6-(4-(4,4,4-trifluorobutoxy)phenyl)-6-(trifluoromethyl)-1,2,5,6-tetrahydropyridine-3-carbonitrile] | 148 |
| N#CC1=C(c2ccc(C3CC3)s2)C[C@](c2ccc(OCCCC(F)(F)F)cc2)(C(F)(F)F)NC1=O [Example 74, (S)-4-(5-Cyclopropylthiophen-2-yl)-2-oxo-6-(4-(4,4,4-trifluorobutoxy)phenyl)-6-(trifluoromethyl)-1,2,5,6-tetrahydropyridine-3-carbonitrile] | 15 |
| COc1ccc(NC(=O)C2=C(c3ccn(C4CC4)n3)C[C@](c3ccc(OCCCC(F)(F)F)cc3)(C(F)(F)F)NC2=O)cc1 [Example 76, (S)-4-(1-Cyclopropyl-1H-pyrazol-3-yl)-N-(4-methoxyphenyl)-2-oxo-6-(4-(4,4,4-trifluorobutoxy)phenyl)-6-(trifluoromethyl)-1,2,5,6-tetrahydropyridine-3-carboxamide] | 4.2 |
